The target in assay [1] is T1, RpOhy (DSM 20415) (Rhodococcus pyridinivorans, UniProt A0A7T7LF34).
T1 construct: gene INP59_15660; N-terminally His6-tagged, codon-optimised, pBAD/His A, E. coli TOP10; Ni-NTA and SEC; monomer, dimer and larger aggregates
T1 sequence (A0A7T7LF34 1-601): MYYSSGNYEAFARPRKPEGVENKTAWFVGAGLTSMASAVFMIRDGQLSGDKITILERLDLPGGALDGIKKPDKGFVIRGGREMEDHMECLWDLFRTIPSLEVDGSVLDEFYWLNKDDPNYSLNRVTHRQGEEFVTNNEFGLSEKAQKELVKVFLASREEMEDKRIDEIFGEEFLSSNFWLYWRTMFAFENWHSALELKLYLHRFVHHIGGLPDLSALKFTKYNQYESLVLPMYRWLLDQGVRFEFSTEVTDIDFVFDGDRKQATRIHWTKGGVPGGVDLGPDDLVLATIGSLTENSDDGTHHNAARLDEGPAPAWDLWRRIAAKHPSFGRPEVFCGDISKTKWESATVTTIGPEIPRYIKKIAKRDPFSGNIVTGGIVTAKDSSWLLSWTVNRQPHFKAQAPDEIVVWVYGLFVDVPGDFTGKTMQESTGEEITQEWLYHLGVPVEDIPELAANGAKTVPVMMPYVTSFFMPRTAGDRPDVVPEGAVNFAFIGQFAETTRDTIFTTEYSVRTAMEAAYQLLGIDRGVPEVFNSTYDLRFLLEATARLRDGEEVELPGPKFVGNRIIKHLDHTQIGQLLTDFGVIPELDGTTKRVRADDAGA
In words: yellow colour of purified enzyme; oleic acid conversion with […] added FAD. Format: binding. To be noted: 20 mM acetate pH 5, 25 °C, 500 uM oleic acid, 1% DMSO.

Assay [2] concerns the target T1, RpOhy (DSM 20415). Kind of assay: coupled assay with alcohol dehydrogenase ADH010, NADH at […] nm. As to conditions: apparent cooperative, Hill n 2.45 ± 0.47; 2 mM NAD+, 50 mM PIPES pH 6.5, 10% DMSO; read-out: K0.5. In kind it is biochemical.

Structures are written as SMILES.

As for `Cc1cc2nc3c(=O)[nH]c(=O)nc-3n(C[C@H](O)[C@H](O)[C@H](O)COP(=O)(O)OP(=O)(O)OC[C@H]3O[C@@H](n4cnc5c(N)ncnc54)[C@H](O)[C@@H]3O)c2cc1C` [FAD], the “yellow colour of purified enzyme; oleic acid conversion with 0-100 uM added FAD” value at RpOhy (DSM 20415) [1] was “yellow colour indicating that the FAD cofactor was incorporated in the enzyme”.

With `CCCCCCCC/C=C\CCCCCCCC(=O)O` [compound 3, Oleic acid], the Km at RpOhy (DSM 20415) [2] turned out to be 720 ± 70 µM.

Source of the values: paper PMC7306040, “Exploring the abundance of oleate hydratases in the genus Rhodococcus—discovery of novel enzymes with complementary substrate scope” (Applied Microbiology and Biotechnology, 2020).
